Patent publication US8722035B2, “Formulations including digestive enzymes, polysorbate-based surfactants and probiotics” (Master Supplements, Inc., priority 2007, dated 2014)

Legend:
[1] = test system: Lactobacillus acidophilus LA-1; test: Growth of Lactobacillus acidophilus LA-1 in broth, plated on MRS agar (Examples 1 and 4); type: cell-based
Procedure: • I) Lactobacillus acidophilus LA-1 was inoculated at one (1) million CFU/ml into 500 ml of sterile broth medium conta Ming 2% casein, 2% corn starch, 0.1% calcium carbonate, 0.1% magnesium carbonate, and 0.05% yeast extract (Difco); a medium in which it is difficult to achieve significant Lactobacillus growth but which contains typical nutrients found in human diets. The inoculated broth (contained in 1 L Erlenmeyer flasks) was incubated at 37 C for 24 hours and then plated on MRS auar to determine CFU/ml. Result (average of triplicate samples): 12 million CFU/ml. • II) The test in (I) was repeated where the medium also contained 0.1% Tween-80. Result: 14 million CFU/ml. • III) The test in (I) was repeated where the medium was pre-treated with digestive enzymes for 24 hours prior to sterilization at 121 C for 20 minutes at 15 psi. The pre-treatment involved adding 250 mg of a lactogenic enzyme mixture containing papain (10,000 TU), bromelain (50 GDU), alpha-amylase (1,000 SKB) and glucoamylase (2.5 AG). Result: 87 million CFU/ml • IV) The test in (III) was repeated where 0.1% Tween-80 (as DP35) was added during the enzyme pre-treatment procedure. […]

[2] = test system: Lactobacillus rhamnosus HN001; test: Growth of Lactobacillus rhamnosus HN001 in broth, plated on MRS agar (Example 2); type: cell-based; details: procedures of Example 1, untreated Test I 6 million CFU/ml
Procedure: • I) Lactobacillus acidophilus LA-1 was inoculated at one (1) million CFU/ml into 500 ml of sterile broth medium conta Ming 2% casein, 2% corn starch, 0.1% calcium carbonate, 0.1% magnesium carbonate, and 0.05% yeast extract (Difco); a medium in which it is difficult to achieve significant Lactobacillus growth but which contains typical nutrients found in human diets. The inoculated broth (contained in 1 L Erlenmeyer flasks) was incubated at 37 C for 24 hours and then plated on MRS auar to determine CFU/ml. Result (average of triplicate samples): 12 million CFU/ml. • II) The test in (I) was repeated where the medium also contained 0.1% Tween-80. Result: 14 million CFU/ml. • III) The test in (I) was repeated where the medium was pre-treated with digestive enzymes for 24 hours prior to sterilization at 121 C for 20 minutes at 15 psi. The pre-treatment involved adding 250 mg of a lactogenic enzyme mixture containing papain (10,000 TU), bromelain (50 GDU), alpha-amylase (1,000 SKB) and glucoamylase (2.5 AG). Result: 87 million CFU/ml • IV) The test in (III) was repeated where 0.1% Tween-80 (as DP35) was added during the enzyme pre-treatment procedure.
• The procedures of Example 1 were repeated with Lactobacillus rhamnosus HN001 substituted for Lactobacillus acidophilus LA-1. The results are as follows: Test I): 6 million CFU/ml. Test II): 7.5 million CFU/ml. Test III): 62 million CFU/ml.

[3] = test system: Bifidobacterium bifidum BB-12; test: Growth of Bifidobacterium bifidum BB-12 in broth (Example 6); type: cell-based; details: untreated Test I 11 million CFU/ml
[4] = hydrophile-lipophile balance, designated from 1 to 20; cited from earlier work
[5] = test system: Lactobacillus paracasei F-19; test: Growth of Lactobacillus paracasei F-19 in broth, plated on MRS agar (Example 3); type: cell-based; details: procedures of Example 1, untreated Test I 14 million CFU/ml
[6] = test system: Bifidobacterium lactis BL04; test: Anaerobic growth of Bifidobacterium lactis BL04 in broth, plated on MRS agar plus L-cysteine HCl (Example 5); type: cell-based; details: inoculum 2 million CFU/ml, casein/rye/asparagus/barley broth, anaerobic 37 C, 24 hours, 0.025% Tween-80, 250 mg enzyme mixture, 24 h pre-treatment, untreated Test I 8 million CFU/ml
Procedure: • I) Bifidobacterium lactis BL04 was inoculated at two (2) million CFU/ml into 500 ml of sterile broth medium containing 2% casein, 1% rye flour, 1% asparagus powder (ground freeze-dried asparagus), 1% barley flour, 0.1% calcium carbonate, 0.1% magnesium carbonate, and 0.05% yeast extract (Difco); a medium in which it is generally difficult to achieve significant Bifidobacteria growth but contains typical nutrients fbund in human diets. The inoculated broth (contained in 1 L Erlenmeyer flasks) was incubated anaerobically at 37 C for 24 hours and then plated on MRS agar plus L-cysteine HCl, to determine CFU/ml (plates were incubated anaerobically), Result (average of triplicate samples): 8 million CFU/ml. • II) The test in I) was repeated where the medium also contained 0.025% Tween-80. Result: 3 million CFU/ml. • III) The test in I) was repeated where the medium was pre-treated with digestive enzymes for 24 hours prior to sterilization at 121 C for 20 minutes at 15 psi. The pre-treatment involved adding 250 mg of a bifidogenic enzyme mixture containing cellulase-TL (1,000 CU), hemicellulase (1,000 HCU), beta-glucanase (50 BGU), papain (10,000 TU) and bromelain (50 GDU). Result 74 million CFU/ml. • IV) The test in III) was repeated where 0.025% Tween-80 was added during the enzyme pre-treatment procedure.

Molecule | viable count of L. acidophilus LA-1 after incubation ([1]; Example 4, procedures of Example 1 with different enzyme mixture and Tween-60 in place of Tween-80, untreated Test I 10 million CFU/ml) [million CFU/ml] | viable count of L. rhamnosus HN001 after incubation [2] [million CFU/ml] | viable count of Bifidobacterium bifidum BB-12 after incubation [3] [million CFU/ml] | viable count of L. acidophilus LA-1 after incubation ([1]; Example 1, inoculum 1 million CFU/ml, casein/corn starch broth, 37 C, 24 hours, 0.1% Tween-80, 250 mg enzyme mixture, 24 h pre-treatment, untreated Test I 12 million CFU/ml) [million CFU/ml] | HLB [4] | viable count of L. paracasei F-19 after incubation [5] [million CFU/ml] | viable count of Bifidobacterium lactis BL04 after incubation [6] [million CFU/ml]
polyoxyethylene sorbitan monostearate [Tween-60] | 9 | – | – | – | – | – | –
CCCCCCCC/C=C\CCCCCCCC(=O)OCCOCC(OCCO)C1OCC(OCCO)C1OCCO (stereo not shown) [Tween-80, polyoxyethylene sorbitan monooleate] | – | 7.5 | 5 | 14 | 15.0 | 19 | 3
